The results in this text go back to patent US8138153B2, “Potassium channel modulator peptide” (National Centre for Biological Sciences, priority 2004, dated 2012).

This assay has as its system K^+ currents (voltage dependent potassium channels) in DRG neurons. The assay is classed as cell-based, Wistar rats.

Entries after “also recorded” stand apart in the source; their conditions may differ.

For the substance FHGGSWYRFPWGY-NH2 [Mo1659], the “Effect on sustained (non-inactivating) K^+ current component” value was “predominantly affects the sustained K^+ current component; also recorded: specifically acts on the non-inactivating K^+ currents”.
